The subject of assay [1] is LDL receptor expression in HepG2 cells. The assay can be described thus: Increase of LDL receptor expression in HepG2 cells, western-blot analysis. The note with it: Homo sapiens, minimum concentration at which a maximal induction of LDL receptor levels was observed. It is filed as cell-based. Here is the method: Compounds and compositions of a particular embodiment of the invention are capable of specifically regulating LDL receptor gene expression. Compounds may be evaluated in vitro for their ability to increase LDL receptor expression using western-blot analysis, for example, as described by Tam et al. (J. Biol. Chem. 1991, 266, 16764). Preferred such compounds and compositions provide ECmax of less than about 50 μM, preferably less than about 5 μM, more preferably less than about 0.5 μM, more preferably less than about 0.05 μM, and most preferably less than about 0.005 μM in this assay (see, e.g. Example 28 herein). Established animal models to evaluate hypocholesterolemic effects of compounds are known in the art. For example, compounds disclosed herein are shown to lower cholesterol levels in hamsters fed a high-cholesterol diet, using a protocol simllar to that described by Spady et al. (J. Clin. Invest. 1988, 81, 300), Evans et al. (J. Lipid Res. 1994, 35, 1634), and Lin et al (J. Med. Chem. 1995, 38, 277).
Certain compounds were evaluated for their ability to increase LDL receptor expression in HepG2 cells using western-blot analysis as described by Tam et al., (J. Biol. Chem., 1991, 266, 16764). […] In all cases, the level of induction was greater than that observed under lipid-free conditions (activated system) in the absence of the test compounds.

Another assay deals with HeLa cells. The assay can be described thus: Inhibition of in vitro growth of HeLa cells (Alamar Blue uptake). It is filed as cell-based. The note with it: Homo sapiens; concentration required to inhibit by 50% the uptake of Alamar Blue by HeLa cell cultures. The text has this: Compounds and compositions of a particular embodiment of the invention display specific toxicity to various types of cells, preferably exerting their cytotoxic effects by interacting with cellular tubulin, preferably covalently and irreversibly. Compounds and compositions may be evaluated in vitro for their ability to inhibit cell grow, for example, as described by Ahmed et al. (J. Immunol. Methods 1994, 170, 211). […] Established animal models to evaluate antiproliferative effects of compounds are known in the art. For example, compounds can be evaluated for their ability to inhibit the growth of human tumors grafted into immunodeficient mice using methodology similar to that described by Rygaard and Poylsen (Acta Pathol. Microbiol. Scand. 1969, 77, 758) and Giovanella and Fogh (Adv. Cancer Res. 1985, 44, 69).
Compounds were evaluated for their ability to inhibit in vitro the growth of HeLa cells, an immortal cell line derived from a human cervical carcinoma commonly used to evaluate the cytotoxicity of potential therapeutic agents. The following data reflect the cytotoxicity of selected examples of the present invention. The values given represent the concentration of test compound required to inhibit by 50% the uptake of Alamar Blue (Biosource International, Camarillo, Calif.) by HeLA cell cultures, which correlates directly with the overall levels of cellular metabolism in the culture, and is generally accepted as an appropriate′marker of cell growth. The test was conducted according to the method of Ahmed et al. (J. Immunol. Methods 1994, 170, 211).
For orientation: The colour change of resazurin is a common sign of viable cells or microbes.

`COc1ccc(NS(=O)(=O)c2ccc(F)c([N+](=O)[O-])c2)cc1` [Example 1, 4-Fluoro-1-[(4-methoxyphenyl)aminosulfonyl]-3-nitrobenzene] displayed an EC (max) in assay [1] of 5 µM.
In the case of `COc1ccc(NS(=O)(=O)c2ccc(F)c([N+](=O)[O-])c2)cc1O` [Example 2, 4-Fluoro-1-[(3-hydroxy-4-methoxyphenyl)aminosulfonyl]-3-nitrobenzene], in the assay with HeLa cells, the midpoint of inhibition, the IC50, lay at 150 nM. Also, the EC (max) in assay [1] came out at 1.5 µM.
The matching figures for `COc1ccc(NS(=O)(=O)c2c(F)c(F)c(F)c(F)c2Br)cc1O` [Example 3, 1-Bromo-3,4,5,6-tetrafluoro-2-[(3-hydroxy-4-methoxyphenyl)aminosulfonyl]benzene]: 50 nM and 0.15 µM.
Taken in the same sequence, the figures for `COc1ccc(NS(=O)(=O)c2c(F)c(F)c(F)c(F)c2Br)cc1` [Example 4, 1-Bromo-3,4,5,6-tetrafluoro-2-[(4-methoxyphenyl)aminosulfonyl]benzene] were 150 nM and 0.5 µM.
`COc1ccc(NS(=O)(=O)c2c(F)c(F)c(F)c(Br)c2F)cc1` [Example 5] gave an IC50 in the assay with HeLa cells of 150 nM. In assay [1], the EC (max) is 0.5 µM.
With `COc1ccc(NS(=O)(=O)c2c(F)c(F)c(Br)c(F)c2F)cc1` [Example 6, 1-Bromo-2,3,5,6-tetrafluoro-4-[(4-methoxyphenyl)aminosulfonyl]benzene], the midpoint of inhibition in the assay on HeLa cells, the IC50, lay at 5000 nM. In assay [1], this compound returned an EC (max) of 50 µM.
The matching figures for `COc1ccc(NS(=O)(=O)c2c(F)c(F)c(Cl)c(F)c2F)cc1` [Example 7, 1-Chloro-2,3,5,6-tetrafluoro-4-[(4-methoxyphenyl)aminosulfonyl]benzene]: 1500 nM and 50 µM.
Taken in the same sequence, the figures for `COc1ccc(NS(=O)(=O)c2c(F)c(Cl)c(F)c(Cl)c2F)cc1` [Example 8, 1,3-Dichloro-2,4,6-trifluoro-5-[(4-methoxyphenyl)aminosulfony]benzene] were 150 nM and 0.5 µM.
Taken in the same sequence, the figures for `COc1ccc(NS(=O)(=O)c2c(F)c(Cl)c(F)c(Cl)c2F)cc1O` [Example 9, 1,3-Dichloro-2,4,6-trifluoro-5-[(3-hydroxy-4-methoxyphenyl)aminosulfonyl]benzene] were 50 nM and 0.15 µM.
For the compound `COc1ccc(NS(=O)(=O)c2cc(Br)c(F)c(F)c2F)cc1` [Example 10, 1-Bromo-2,3,4-trifluoro-5-[(4-methoxyphenyl)aminosulfonyl]benzene], the IC50 in the assay on HeLa cells stood at 500 nM. The compound further yielded an EC (max) in assay [1] of 1.5 µM.
The matching figures for `COc1ccc(NS(=O)(=O)c2cc(F)c(F)c(F)c2Br)cc1` [Example 11, 1-Bromo-4,5,6-trifluoro-2-[(4-methoxyphenyl)aminosulfonyl]benzene]: 500 nM and 1.5 µM.
With `COc1ccc(NS(=O)(=O)c2ccc(F)c(F)c2F)cc1O` [Example 17, 1-[(3-Hydroxy-4-methoxyphenyl)aminosulfonyl]-2,3,4-trifluorobenzene], in the assay on HeLa cells, 1500 nM corresponded to half-maximal inhibition (IC50).
`COc1ccc(NS(=O)(=O)c2c(F)cc(F)c(F)c2F)cc1` [Example 19, 2,3,4,6-Tetrafluoro-1-[(4-methoxyphenyl)aminosulfonyl]benzene] came in with a half-inhibitory concentration (IC50) in the assay with HeLa cells of 5000 nM. Also, the EC (max) in assay [1] was 15 µM.
The matching figures for `COc1ccc(NS(=O)(=O)c2cc(F)c(F)c(F)c2F)cc1` [Example 20, 2,3,4,5-Tetrafluoro-1-[(4-methoxyphenyl)aminosulfonyl]benzene]: 500 nM and 1.5 µM.
The matching figures for `COc1ccc(NS(=O)(=O)c2cc(F)c(F)c(F)c2F)cc1O` [Example 21, 2,3,4,5-Tetrafluoro-1-[(3-hydroxy-4-methoxyphenyl)aminosulfonyl]benzene]: 150 nM and 0.5 µM.
The matching figures for `COc1ccc(NS(=O)(=O)c2cc(F)c(F)c(F)c2)cc1` [Example 22, 3,4,5-Trifluoro-1-[(4-methoxyphenyl)aminosulfonyl]benzene]: 5000 nM and 5 µM.
In turn, `COc1ccc(NS(=O)(=O)c2cc(F)c(F)c(F)c2)cc1O` [Example 23, 3,4,5-Trifluoro-1-[(3-hydroxy-4-methoxyphenyl)aminosulfonyl]benzene] yielded an IC50 in the assay with HeLa cells of 1500 nM. That is a single-digit micromolar value.
In the assay with HeLa cells, `COc1ccc(CS(=O)(=O)c2c(F)c(F)c(F)c(F)c2F)cc1` [Example 24, 4-Methoxybenzyl Pentafluorophenyl Sulfone] displayed an IC50 of 5000 nM. The compound further registered an EC (max) in assay [1] of 1.5 µM.

What is called IC50 is the concentration needed to halve the response being measured. A higher IC50 goes with a need for much substance.

(Values after patent publication US6388131B2, “Benzene compounds as antiproliferative and cholesterol lowering agents” (Tularik, Inc., priority 1997, dated 2002).)
